In patent US20220096389A1, “PHARMACEUTICAL COMPOSITIONS OF AMORPHOUS SOLID DISPERSIONS AND METHODS OF PREPARATION THEREOF” (Shenzhen Pharmacin Co., Ltd., priority 2020, published 2022):
Read-outs that look alike come from different tables or passages of the source.

How the values were obtained:
[1] = cited from earlier work; for Measured or Calculated pKas (first value): first value in cell; for Measured or Calculated pKas (second value): second value in cell
[2] = target: Human Epidermal Growth Factor Receptor 2 (HER2) (Homo sapiens, UniProt P04626); details: cited from earlier work
HER4 = HER4 (Homo sapiens, UniProt Q15303); details: cited from earlier work
[3] = tested on: EGFR and HER2 autophosphorylation, downstream MAPK and AKT signaling pathways; details: in vitro; cited from earlier work
[4] = tested on: EGFR and/or HER2 expressing carcinoma cell lines; details: in vitro; cited from earlier work
[5] = tested on: tumor cell lines expressing HER2 and EGFR; details: oral administration; cited from earlier work
[6] = Kinetic solubility profiles of palbociclib ASD powders; assay type: physicochemical; details: aqueous buffer, thermodynamic from solid; pH 6.5 phosphate buffer, 37 C
[7] = cited from earlier work

Sequence of Human Epidermal Growth Factor Receptor 2 (HER2) (P04626 23-1255): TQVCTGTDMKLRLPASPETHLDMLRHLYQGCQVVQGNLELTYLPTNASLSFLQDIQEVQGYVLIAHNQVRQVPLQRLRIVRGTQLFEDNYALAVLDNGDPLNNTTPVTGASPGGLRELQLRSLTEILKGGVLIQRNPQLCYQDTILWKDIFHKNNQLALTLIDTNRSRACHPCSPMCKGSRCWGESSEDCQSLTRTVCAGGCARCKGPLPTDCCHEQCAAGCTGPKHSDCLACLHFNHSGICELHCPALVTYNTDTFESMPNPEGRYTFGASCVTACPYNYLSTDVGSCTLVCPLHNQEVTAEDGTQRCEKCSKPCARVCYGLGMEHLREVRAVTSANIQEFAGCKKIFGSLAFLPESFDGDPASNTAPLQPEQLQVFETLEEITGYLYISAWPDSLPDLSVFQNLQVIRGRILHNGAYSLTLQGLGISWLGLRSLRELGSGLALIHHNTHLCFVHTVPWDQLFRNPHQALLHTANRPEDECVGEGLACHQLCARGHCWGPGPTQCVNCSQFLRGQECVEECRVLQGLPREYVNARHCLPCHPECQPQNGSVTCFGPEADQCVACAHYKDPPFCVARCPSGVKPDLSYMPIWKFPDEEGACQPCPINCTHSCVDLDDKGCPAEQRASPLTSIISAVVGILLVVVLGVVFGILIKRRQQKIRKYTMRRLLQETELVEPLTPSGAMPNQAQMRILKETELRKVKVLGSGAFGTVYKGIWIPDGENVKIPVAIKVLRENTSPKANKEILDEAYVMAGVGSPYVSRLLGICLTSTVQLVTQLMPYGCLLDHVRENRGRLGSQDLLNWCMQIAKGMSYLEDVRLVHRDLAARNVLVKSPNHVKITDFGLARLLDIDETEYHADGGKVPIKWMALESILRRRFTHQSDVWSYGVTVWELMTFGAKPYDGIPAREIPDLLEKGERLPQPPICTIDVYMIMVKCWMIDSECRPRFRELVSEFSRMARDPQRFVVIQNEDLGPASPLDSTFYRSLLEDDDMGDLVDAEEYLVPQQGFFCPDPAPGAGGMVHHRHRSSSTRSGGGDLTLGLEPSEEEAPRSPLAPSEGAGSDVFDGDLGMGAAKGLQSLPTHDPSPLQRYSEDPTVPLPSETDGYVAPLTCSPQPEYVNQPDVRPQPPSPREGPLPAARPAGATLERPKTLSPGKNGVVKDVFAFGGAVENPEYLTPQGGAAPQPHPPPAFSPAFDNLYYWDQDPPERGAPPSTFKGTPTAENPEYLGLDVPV
Sequence of HER4 (Q15303 26-1308): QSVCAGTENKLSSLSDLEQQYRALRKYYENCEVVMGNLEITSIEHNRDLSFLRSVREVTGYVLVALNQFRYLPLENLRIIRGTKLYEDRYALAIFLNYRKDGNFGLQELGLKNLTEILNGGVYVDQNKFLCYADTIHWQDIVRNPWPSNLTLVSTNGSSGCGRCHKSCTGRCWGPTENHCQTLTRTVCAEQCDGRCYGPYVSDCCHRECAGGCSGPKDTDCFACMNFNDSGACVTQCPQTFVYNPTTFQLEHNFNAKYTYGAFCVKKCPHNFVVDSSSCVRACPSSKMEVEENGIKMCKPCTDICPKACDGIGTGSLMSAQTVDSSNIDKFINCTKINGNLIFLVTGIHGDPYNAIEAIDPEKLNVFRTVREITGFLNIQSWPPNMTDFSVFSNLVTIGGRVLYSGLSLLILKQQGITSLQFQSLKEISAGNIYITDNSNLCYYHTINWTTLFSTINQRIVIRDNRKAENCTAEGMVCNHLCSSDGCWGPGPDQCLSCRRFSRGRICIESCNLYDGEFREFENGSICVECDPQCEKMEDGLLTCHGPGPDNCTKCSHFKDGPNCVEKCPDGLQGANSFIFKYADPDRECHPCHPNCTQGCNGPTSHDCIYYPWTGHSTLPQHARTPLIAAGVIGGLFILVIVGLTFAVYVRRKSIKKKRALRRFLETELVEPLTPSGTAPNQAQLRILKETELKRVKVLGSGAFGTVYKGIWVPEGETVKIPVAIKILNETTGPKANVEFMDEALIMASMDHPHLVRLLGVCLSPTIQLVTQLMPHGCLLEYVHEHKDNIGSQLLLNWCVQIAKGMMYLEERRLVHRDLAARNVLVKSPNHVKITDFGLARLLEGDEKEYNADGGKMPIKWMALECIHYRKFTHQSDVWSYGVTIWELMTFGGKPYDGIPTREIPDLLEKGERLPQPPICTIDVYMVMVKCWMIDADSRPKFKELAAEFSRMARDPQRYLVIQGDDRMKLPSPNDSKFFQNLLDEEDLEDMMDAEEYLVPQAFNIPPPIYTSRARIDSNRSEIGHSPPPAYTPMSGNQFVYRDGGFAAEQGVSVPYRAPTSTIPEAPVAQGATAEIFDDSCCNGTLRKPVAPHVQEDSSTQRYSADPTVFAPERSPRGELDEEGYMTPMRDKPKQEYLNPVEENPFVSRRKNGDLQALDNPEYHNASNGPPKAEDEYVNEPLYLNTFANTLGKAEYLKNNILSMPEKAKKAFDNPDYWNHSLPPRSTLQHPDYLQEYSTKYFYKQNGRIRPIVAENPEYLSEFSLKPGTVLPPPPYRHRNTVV

Row | SMILES | Measured or Calculated pKas (first value) [1] | Measured or Calculated pKas (second value) [1] | further results
1 | CC1(C)S[C@@H]2[C@H](NC(=O)[C@H](N)c3ccc(O)cc3)C(=O)N2[C@H]1C(=O)O [Amoxicillin] | 3.39 | 6.71 | –
2 | CC[C@H]1OC(=O)[C@H](C)[C@@H](O[C@H]2C[C@@](C)(OC)[C@@H](O)[C@H](C)O2)[C@H](C)[C@@H](O[C@@H]2O[C@H](C)C[C@H](N(C)C)[C@H]2O)[C@](C)(O)C[C@@H](C)CN(C)[C@H](C)[C@@H](O)[C@]1(C)O [Azithromycin] | 7.34 | – | –
3 | CCC(C(=O)O)c1ccc(CC(C)C)cc1 (stereo not drawn) [Butibufen] | 4.64 | – | –
4 | CC(C(=O)O)c1ccc2c(c1)[nH]c1ccc(Cl)cc12 (stereo not drawn) [Carprofen] | 4.63 | – | –
5 | CN(C)[C@@H]1C(O)=C(C(N)=O)C(=O)[C@@]2(O)C(O)=C3C(=O)c4c(O)ccc(Cl)c4[C@@](C)(O)[C@H]3C[C@@H]12 [Chlortetracycline] | 3.33 ± 0.30 | 7.55 ± 0.02 | –
6 | CC[C@H]1OC(=O)[C@H](C)[C@@H](O[C@H]2C[C@@](C)(OC)[C@@H](O)[C@H](C)O2)[C@H](C)[C@@H](O[C@@H]2O[C@H](C)C[C@H](N(C)C)[C@H]2O)[C@](C)(OC)C[C@@H](C)C(=O)[C@H](C)[C@@H](O)[C@]1(C)O [Clarithromycin] | 7.25 | – | –
7 | CN1C[C@@H]2C[C@H]1CN2c1cc2c(cc1F)c(=O)c(C(=O)O)cn2C1CC1 [Danofloxacin] | 6.07 ± 0.06 | 8.56 ± 0.07 | –
8 | CN(C)[C@@H]1C(O)=C(C(N)=O)C(=O)[C@@]2(O)C(O)=C3C(=O)c4c(O)ccc(Cl)c4[C@@H](O)[C@H]3C[C@@H]12 [Demeclocycline] | 3.37 ± 0.30 | 7.36 ± 0.03 | –
9 | O=C(O)Cc1ccccc1Nc1c(Cl)cccc1Cl [Diclofenac] | 4.16 | – | –
10 | CN1CCN(c2cc3c(cc2F)c(=O)c(C(=O)O)cn3-c2ccc(F)cc2)CC1 [Difloxacin] | 5.66 ± 0.04 | 7.24 ± 0.06 | –
11 | C[C@H]1c2cccc(O)c2C(=O)C2=C(O)[C@]3(O)C(=O)C(C(N)=O)=C(O)[C@@H](N(C)C)[C@@H]3[C@@H](O)[C@@H]21 [Doxycycline] | 3.02 ± 0.30 | 7.97 ± 0.15 | –
12 | CCn1cc(C(=O)O)c(=O)c2cc(F)c(N3CCNCC3)nc21 [Enoxacin] | 5.05 ± 0.08 | 6.25 ± 0.05 | –
13 | CCN1CCN(c2cc3c(cc2F)c(=O)c(C(=O)O)cn3C2CC2)CC1 [Enrofloxacin] | 5.88 ± 0.03 | 7.74 ± 0.03 | –
14 | C#Cc1cccc(Nc2ncnc3cc(OCCOC)c(OCCOC)cc23)c1 [Erlotinib] | 5.4 | – | –
15 | O=C(O)CCC(=O)c1ccc(-c2ccccc2)cc1 [Fenbufen] | 4.56 | – | –
16 | CN1CCN(c2c(F)cc3c(=O)c(C(=O)O)cn(CCF)c3c2F)CC1 [Fleroxacin] | 5.46 | 8.00 | –
17 | CC(C(=O)O)c1ccc(-c2ccccc2)c(F)c1 (stereo not drawn) [Flurbiprofen] | 4.35 | – | –
18 | COc1cc2ncnc(Nc3ccc(F)c(Cl)c3)c2cc1OCCCN1CCOCC1 [Gefitinib] | 7.2 | – | –
19 | CC(C)Cc1ccc(C(C)C(=O)O)cc1 (stereo not drawn) [Ibuprofen] | 4.51 | – | –
20 | CC(CCc1ccccc1)NCC(O)c1ccc(O)c(C(N)=O)c1 (stereo not drawn) [Labetalol] | 7.35 | – | –
21 | CN1CCN(c2c(F)cc3c(=O)c(C(=O)O)cn4c3c2OCN4C)CC1 [Marbofloxacin] | 5.69 ± 0.10 | 8.02 ± 0.20 | –
22 | C=C1c2c(Cl)ccc(O)c2C(=O)C2=C(O)[C@]3(O)C(=O)C(C(N)=O)=C(O)[C@@H](N(C)C)[C@@H]3[C@@H](O)[C@H]12 [Meclocycline] | 4.05 ± 0.30 | 6.87 ± 0.39 | –
23 | CCOc1cc2ncc(C#N)c(Nc3ccc(OCc4ccccn4)c(Cl)c3)c2cc1NC(=O)/C=C/CN(C)C [Neratinib] | – | – | binding to HER2 [2]: irreversibly binds; binding to HER4 (HER4): irreversibly binds; EGFR and HER2 autophosphorylation, downstream MAPK and AKT signaling [3]: reduces; antitumor activity in carcinoma cell lines [4]: antitumor activity; tumor growth in mouse xenograft models [5]: inhibited tumor growth

Row | SMILES | Measured or Calculated pKas (first value) [1] | Measured or Calculated pKas (second value) [1] | further results
24 | CC1COc2c(N3CCN(C)CC3)c(F)cc3c(=O)c(C(=O)O)cn1c23 (stereo not drawn) [Ofloxacin] | 6.22 ± 0.05 | 7.81 ± 0.08 | –
25 | COc1ccc2[nH]c([S+]([O-])Cc3ncc(C)c(OC)c3C)nc2c1 (stereo not drawn) [Omeprazole] | 4.14 | 8.90 | –
26 | C=CCOc1ccccc1OCC(O)CNC(C)C (stereo not drawn) [Oxprenolol] | 9.62 | – | –
27 | CN(C)[C@@H]1C(O)=C(C(N)=O)C(=O)[C@@]2(O)C(O)=C3C(=O)c4c(O)cccc4[C@@](C)(O)[C@H]3[C@H](O)[C@@H]12 [Oxytetracycline] | 3.04 | 8.00 | –
28 | CC(=O)c1c(C)c2cnc(Nc3ccc(N4CCNCC4)cn3)nc2n(C2CCCC2)c1=O [Palbociclib, 6-acetyl-8-cyclopentyl-5-methyl-2-[(5-piperazin-1-ylpyridin-2-yl)amino]pyrido[2,3-d]pyrimidin-7-one] | – | – | solubility [6]: < 10 µg/mL; solubility ([7]; pH value below 4): high; solubility ([7]; pH value higher than 4): less than 0.02 mg/ml
29 | CCn1cc(C(=O)O)c(=O)c2cnc(N3CCNCC3)nc21 [Pipemidic acid] | 5.42 ± 0.05 | 8.18 ± 0.09 | –
30 | CC(=O)Nc1ccc(OCC(O)CNC(C)C)cc1 (stereo not drawn) [Practolol] | 9.41 | – | –
31 | CCN(CC)CCOC(=O)c1ccc(N)cc1 [Procaine] | 2.28 ± 0.08 | 9.02 ± 0.01 | –
32 | CC(C)NCC(O)COc1cccc2ccccc12 (stereo not drawn) [Propranolol] | 9.49 ± 0.2 | – | –
33 | CC[C@H]1OC(=O)[C@H](C)[C@@H](O[C@H]2C[C@@](C)(OC)[C@@H](O)[C@H](C)O2)[C@H](C)[C@@H](O[C@@H]2O[C@H](C)C[C@H](N(C)C)[C@H]2O)[C@](C)(O)C[C@@H](C)/C(=N\OCOCCOC)[C@H](C)[C@@H](O)[C@]1(C)O [Roxithromycin] | 9.17 ± 0.30 | – | –
34 | O=C(O)c1cn(-c2ccc(F)cc2)c2cc(N3CCNCC3)c(F)cc2c1=O [Sarafloxacin] | 5.62 ± 0.08 | 8.18 ± 0.09 | –
35 | CC(=O)NS(=O)(=O)c1ccc(N)cc1 [Sulfacetamide] | 1.95 ± 0.11 | 5.30 ± 0.05 | –
36 | Nc1ccc(S(=O)(=O)Nc2ccc(Cl)nn2)cc1 [Sulfachloropyridazine] | 1.87 ± 0.30 | 5.45 ± 0.06 | –
37 | Nc1ccc(S(=O)(=O)Nc2ncccn2)cc1 [Sulfadiazine] | 2.10 | 6.28 | –
38 | [H]/N=C(/N)NS(=O)(=O)c1ccc(N)cc1 [Sulfaguanidine] | 1.55 | 11.24 | –
39 | Cc1ccnc(NS(=O)(=O)c2ccc(N)cc2)n1 [Sulfamerazine] | 2.17 | 6.77 | –
40 | Cc1cc(C)nc(NS(=O)(=O)c2ccc(N)cc2)n1 [Sulfamethazine] | 2.28 | 7.42 | –
41 | Cc1nnc(NS(=O)(=O)c2ccc(N)cc2)s1 [Sulfamethizole] | 1.86 ± 0.30 | 5.29 ± 0.04 | –
42 | Nc1ccc(S(=O)(=O)Nc2nccs2)cc1 [Sulfathiazole] | 2.08 | 7.07 | –
43 | CC(C)(C)NC[C@H](O)COc1nsnc1N1CCOCC1 [Timolol] | 9.34 | – | –
44 | COc1cc(Cc2cnc(N)nc2N)cc(OC)c1OC [Trimethoprim] | 3.23 ± 0.30 | 6.76 ± 0.12 | –
45 | CC[C@H]1OC(=O)C[C@@H](O)[C@H](C)[C@@H](O[C@@H]2O[C@H](C)[C@@H](O[C@H]3C[C@@](C)(O)[C@@H](O)[C@H](C)O3)[C@H](N(C)C)[C@H]2O)[C@@H](CC=O)C[C@@H](C)C(=O)/C=C/C(C)=C/[C@@H]1CO[C@@H]1O[C@H](C)[C@@H](O)[C@@H](OC)[C@H]1OC [Tylosin] | 3.31 ± 0.30 | 7.50 ± 0.13 | –
